Experimental data reported in article PMC7105723, “A Ganoderma-Derived Compound Exerts Inhibitory Effect Through Formyl Peptide Receptor 2” (Frontiers in Pharmacology, 2020).

Biological target: T1, formyl peptide receptor 2 (FPR2) (Homo sapiens, UniProt P25090)
T1 construct: human FPR2 stably expressed in RBL-2H3 cells; FPR2-ICL3-FlAsH/C-terminal ECFP in HEK-293 cells for FRET
T1 sequence (P25090 1-351): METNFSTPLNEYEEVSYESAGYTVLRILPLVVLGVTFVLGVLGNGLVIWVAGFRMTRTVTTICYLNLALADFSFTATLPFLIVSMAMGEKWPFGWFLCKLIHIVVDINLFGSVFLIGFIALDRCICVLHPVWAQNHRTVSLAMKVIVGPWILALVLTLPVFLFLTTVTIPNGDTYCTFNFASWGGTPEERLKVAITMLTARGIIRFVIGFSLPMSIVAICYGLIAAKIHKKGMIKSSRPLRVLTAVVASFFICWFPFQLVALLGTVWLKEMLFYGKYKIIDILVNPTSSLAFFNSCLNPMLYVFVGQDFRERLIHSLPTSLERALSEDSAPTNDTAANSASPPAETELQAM
Experiment: competition with WK(FITC)YMVm on RBL-FPR2 cells by flow cytometry (partial); FlAsH FRET conformational change
Assay type: cell-based

IC50: 3.2 µM
SMILES: CC(C)=CCC/C(C)=C/CC/C(=C/Cc1cc(O)ccc1O)CO [C18, ganomycin F]
